Source: ChEMBL document CHEMBL3758122, “Multitarget opioid ligands in pain relief: New players in an old game” (Eur J Med Chem, 2016)
Starred links: 1 amine or outer side, 2 acyl side, 3 side chain; linkers in the order of their positions; H or OH if unused. Positions of bridges follow the written chain, without caps; N, C: chain ends. Non-standard residues stand in square brackets, D forms with d. Residues, ends and D or L forms follow the SMILES beside them. *: point of attachment. Dmt = Cc1cc(O)cc(C)c1C[C@H](N)C(=O)O; Tic = O=C(O)[C@@H]1Cc2ccccc2CN1; NHBn = c1ccc(CN*)cc1; CH2 = C([*:1])[*:2]

Tests used:
[1] = target: Delta-type opioid receptor (Rattus norvegicus, UniProt P33533); assay: (§1) Agonist activity at rat delta opioid receptor transfected in C6 cells by [35S]GTPgammaS binding assay; assay type: functional, cell-based
[2] = target: T1, Delta-type opioid receptor (Homo sapiens, UniProt P41143); assay: Binding affinity at delta opioid receptor (unknown origin)
Mu-type opioid receptor [3] = target: T2, Mu-type opioid receptor (Homo sapiens, UniProt P35372); assay: Binding affinity at mu opioid receptor (unknown origin)
[4] = target: T1, Delta-type opioid receptor; assay: Antagonist activity at human delta opioid receptor expressed in CHO cell membrane assessed as inhibition of […]-induced [35S]-GTP-gammaS binding; assay type: cell membranes
Mu-type opioid receptor [5] = target: T2, Mu-type opioid receptor; assay: Agonist activity at human mu opioid receptor expressed in CHO cells by [35S]GTP-gammaS binding assay
Mu-type opioid receptor [6] = target: T2, Mu-type opioid receptor; assay: Displacement of [3H]DAMGO from human mu opioid receptor expressed in CHO cell membrane; assay type: cell membranes
[7] = target: T1, Delta-type opioid receptor; assay: Displacement of [3H]naltrindole from human delta opioid receptor expressed in CHO cell membrane; assay type: cell membranes
[8] = target: T1, Delta-type opioid receptor; assay: Displacement of [3H]DPN from human delta opioid receptor expressed in CHO cells by liquid scintillation counting; assay type: cell-based
Mu-type opioid receptor [9] = target: Mu-type opioid receptor (Cavia porcellus, UniProt P97266); assay: Agonist activity at mu-opioid receptor in guinea pig ileum assessed as inhibition of electrically induced twitches; assay type: tissue-based
[10] = target: T3, Delta-type opioid receptor (Mus musculus, UniProt P32300); assay: Agonist activity at delta-opioid receptor in mouse vas deferens; assay type: tissue-based
[11] = target: T3, Delta-type opioid receptor; assay: Antagonist activity at delta-opioid receptor in mouse vas deferens assessed as inhibition of DPDPE-induced inhibition of electrically induced twitches; assay type: tissue-based; conditions: read-out: pA2 (converted)
Mu-type opioid receptor [12] = target: T2, Mu-type opioid receptor; assay: Displacement of [3H]DPN from human mu opioid receptor expressed in CHO cells by liquid scintillation counting; assay type: cell-based
Rattus norvegicus = assay: Analgesic activity in sc dosed rat by tail flick test; assay type: functional
[13] = target: Delta-type opioid receptor (Rattus norvegicus) (UniProt P33533); assay: as §1; assay type: functional, cell-based
[14] = target: Mu-type opioid receptor (Rattus norvegicus) (UniProt P33535); assay: (§2) Agonist activity at rat mu opioid receptor transfected in C6 cells by [35S]GTPgammaS binding assay; assay type: functional, cell-based
[15] = target: T1, Delta-type opioid receptor; assay: Partial agonist activity at delta opioid receptor (unknown origin) assessed as inhibition of adenylyl cyclase activity
[16] = target: T4, Kappa-type opioid receptor (Homo sapiens, UniProt P41145); assay: Agonist activity at kappa opioid receptor (unknown origin) assessed as [35S]GTPgammaS binding by cell based assay; assay type: functional
[17] = target: T4, Kappa-type opioid receptor; assay: Binding affinity to kappa opioid receptor (unknown origin)
Mu-type opioid receptor [18] = target: T2, Mu-type opioid receptor; assay: Agonist activity at mu opioid receptor (unknown origin) assessed as [35S]GTPgammaS binding by cell based assay; assay type: functional
Mus musculus [19] = assay: Antinociceptive activity in sc dosed Swiss Webster mouse measured after 30 mins by hot plate test; assay type: functional; conditions: 0.5 h
[20] = target: T1, Delta-type opioid receptor; assay: Displacement of [3H]DPDPE from human delta opioid receptor expressed in CHO cells; assay type: cell-based
Mus musculus [21] = assay: Antinociceptive activity in icv dosed mouse after 20 mins by tail flick test; assay type: functional
[22] = target: T4, Kappa-type opioid receptor; assay: Agonist activity at human kappa opioid receptor expressed in CHO cell membrane by [35S]GTP-gammaS binding assay
Mu-type opioid receptor [23] = target: Mu-type opioid receptor (Rattus norvegicus, UniProt P33535); assay: as §2; assay type: functional, cell-based
Mu-type opioid receptor (Rattus norvegicus, UniProt P33535), sequence (P33535 whole entry): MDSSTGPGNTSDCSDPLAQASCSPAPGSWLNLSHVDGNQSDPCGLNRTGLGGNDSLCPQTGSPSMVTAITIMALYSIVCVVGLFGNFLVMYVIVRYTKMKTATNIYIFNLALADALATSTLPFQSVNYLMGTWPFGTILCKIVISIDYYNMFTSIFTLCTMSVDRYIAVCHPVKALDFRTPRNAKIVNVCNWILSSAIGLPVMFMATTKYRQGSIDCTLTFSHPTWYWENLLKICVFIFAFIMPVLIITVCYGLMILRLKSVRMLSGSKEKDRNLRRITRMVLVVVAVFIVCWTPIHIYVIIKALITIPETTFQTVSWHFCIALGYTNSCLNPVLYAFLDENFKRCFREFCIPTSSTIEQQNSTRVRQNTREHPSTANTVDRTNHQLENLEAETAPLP

T1 sequence (P41143 whole entry): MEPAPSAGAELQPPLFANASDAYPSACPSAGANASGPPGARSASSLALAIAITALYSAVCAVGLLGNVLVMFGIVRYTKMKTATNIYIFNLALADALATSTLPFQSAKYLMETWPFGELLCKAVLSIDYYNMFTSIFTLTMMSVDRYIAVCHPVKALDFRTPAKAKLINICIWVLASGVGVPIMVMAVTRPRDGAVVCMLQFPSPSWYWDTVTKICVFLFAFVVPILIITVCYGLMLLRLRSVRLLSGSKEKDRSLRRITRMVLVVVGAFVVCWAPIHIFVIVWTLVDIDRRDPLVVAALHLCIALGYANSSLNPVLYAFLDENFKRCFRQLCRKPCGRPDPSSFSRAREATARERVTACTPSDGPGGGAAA
T4 sequence (P41145 whole entry): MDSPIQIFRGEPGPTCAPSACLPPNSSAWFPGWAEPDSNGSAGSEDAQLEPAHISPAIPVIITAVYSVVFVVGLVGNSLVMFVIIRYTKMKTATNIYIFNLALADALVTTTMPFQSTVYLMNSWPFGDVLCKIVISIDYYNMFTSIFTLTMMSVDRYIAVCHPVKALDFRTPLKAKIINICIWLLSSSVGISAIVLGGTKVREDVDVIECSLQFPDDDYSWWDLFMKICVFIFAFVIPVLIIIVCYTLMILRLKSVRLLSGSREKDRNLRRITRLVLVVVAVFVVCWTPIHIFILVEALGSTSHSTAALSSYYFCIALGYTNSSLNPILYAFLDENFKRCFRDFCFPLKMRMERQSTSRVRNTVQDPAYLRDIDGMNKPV
T2 sequence (P35372 whole entry): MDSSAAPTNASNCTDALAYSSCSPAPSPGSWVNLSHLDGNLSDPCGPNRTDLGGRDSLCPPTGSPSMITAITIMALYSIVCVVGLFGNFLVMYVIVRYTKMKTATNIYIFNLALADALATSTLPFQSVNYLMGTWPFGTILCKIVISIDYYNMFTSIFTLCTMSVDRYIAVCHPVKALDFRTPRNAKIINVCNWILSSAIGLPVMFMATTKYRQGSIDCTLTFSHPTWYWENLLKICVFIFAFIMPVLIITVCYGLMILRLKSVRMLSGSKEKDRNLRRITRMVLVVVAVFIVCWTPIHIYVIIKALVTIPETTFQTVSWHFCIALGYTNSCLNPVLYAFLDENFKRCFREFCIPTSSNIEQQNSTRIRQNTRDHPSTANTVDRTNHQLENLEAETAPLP
Mu-type opioid receptor (Rattus norvegicus), sequence (P33535 whole entry): as the sequence (P33535 whole entry) above
Delta-type opioid receptor (Rattus norvegicus, UniProt P33533), sequence (P33533 whole entry): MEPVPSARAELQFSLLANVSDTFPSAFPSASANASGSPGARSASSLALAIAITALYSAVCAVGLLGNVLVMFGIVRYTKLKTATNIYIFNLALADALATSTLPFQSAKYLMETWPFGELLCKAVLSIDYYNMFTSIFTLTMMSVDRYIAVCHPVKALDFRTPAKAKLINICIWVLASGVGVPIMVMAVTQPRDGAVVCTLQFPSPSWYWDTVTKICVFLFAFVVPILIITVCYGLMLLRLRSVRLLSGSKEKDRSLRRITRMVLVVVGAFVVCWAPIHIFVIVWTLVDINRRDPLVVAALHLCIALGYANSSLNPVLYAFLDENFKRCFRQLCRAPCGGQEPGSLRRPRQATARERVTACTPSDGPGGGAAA
Delta-type opioid receptor (Rattus norvegicus), sequence (P33533 whole entry): as above
T3 sequence (P32300 whole entry): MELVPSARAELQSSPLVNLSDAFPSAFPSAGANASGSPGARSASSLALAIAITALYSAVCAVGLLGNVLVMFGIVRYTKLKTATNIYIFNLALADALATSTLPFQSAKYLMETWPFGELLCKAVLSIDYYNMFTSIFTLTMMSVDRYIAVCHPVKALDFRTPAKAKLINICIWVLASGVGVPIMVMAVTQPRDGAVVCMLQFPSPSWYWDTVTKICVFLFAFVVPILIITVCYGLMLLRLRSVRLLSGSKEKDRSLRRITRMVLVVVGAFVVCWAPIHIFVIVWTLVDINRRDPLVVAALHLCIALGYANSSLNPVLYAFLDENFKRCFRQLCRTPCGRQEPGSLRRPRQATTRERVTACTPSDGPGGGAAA
Mu-type opioid receptor (Cavia porcellus, UniProt P97266), sequence (P97266 whole entry): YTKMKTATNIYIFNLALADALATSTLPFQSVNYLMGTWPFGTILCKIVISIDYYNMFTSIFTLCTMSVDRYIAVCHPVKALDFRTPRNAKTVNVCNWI

`CCCC[C@@H]1NC(=O)[C@H](Cc2cccc3ccccc23)NC(=O)[C@H](NC(=O)[C@@H](N)Cc2ccc(O)cc2)CSSC[C@@H](C(N)=O)NC1=O` gave an EC50 [1] of 22 nM.
`Cc1cc(O)cc(C)c1C[C@H](N)C(=O)N1Cc2ccccc2C[C@H]1CN[C@@H](Cc1ccccc1)C(=O)N[C@@H](Cc1ccccc1)C(N)=O` was tested, and the Ki [2] was 0.44 nM and the Ki (Mu-type opioid receptor [3]) was 0.94 nM.
In the case of `Cc1cc(O)cc(C)c1C[C@H](N)C(=O)N1Cc2ccccc2C[C@@H]1C(=O)NCC(=O)N(c1ccccc1)c1ccccc1`, the IC50 [4] is reported as 8.3 nM, the EC50 (Mu-type opioid receptor [5]) is reported as 4.8 nM and the Ki (Mu-type opioid receptor [6]) is reported as 1.71 nM. For the same compound, the Ki [7] was 0.94 nM.
`Cc1cc(O)cc(C)c1C[C@H](N)C(=O)N1Cc2ccccc2C[C@H]1C(=O)NCC(=O)NCc1ccccc1` (H-[Dmt]-[Tic]-Gly-NHBn) gave a Ki [8] of 0.151 nM, a Ki [2] of 0.16 nM and a Ki (Mu-type opioid receptor [3]) of 0.031 nM. For the same compound, the EC50 (Mu-type opioid receptor [9]) was 31.6 nM, the EC50 [10] was 2.57 nM and the Kb [11] was 0.708 nM. For the same compound, the Ki (Mu-type opioid receptor [12]) was 16.2 nM.
With `NC(=O)[C@@H]1CSCSC[C@@H](NC(=O)[C@@H](N)Cc2ccc(O)cc2)C(=O)N[C@@H](Cc2ccccc2)C(=O)N[C@@H](Cc2ccccc2)C(=O)N1` (H-Y[dC]FFC-NH2; linker 2-5 via CH2) the Ki [2] was 1.8 nM and the Ki (Mu-type opioid receptor [3]) was 0.016 nM.
With `C[C@H]1[C@H]2Cc3ccc(O)cc3[C@]1(C)CCN2CCC(=O)Nc1ccccc1` the Ki [2] was 29 nM, the Ki (Mu-type opioid receptor [3]) was 0.83 nM and the ED50 (Rattus norvegicus) was 2.03 mg/kg.
In the case of `CCCC[C@@H]1NC(=O)[C@H](Cc2cccc3ccccc23)NC(=O)[C@@H](NC(=O)[C@@H](N)Cc2ccc(O)cc2)CSSC[C@H](C(=O)O)NC1=O`, the Emax [13] is reported as 100% and the Emax [14] is reported as 100%.
`NC(=O)[C@H]1CSCSC[C@H](NC(=O)[C@@H](N)Cc2ccc(O)cc2)C(=O)N[C@@H](Cc2ccccc2)C(=O)N[C@@H](Cc2ccc3ccccc3c2)C(=O)N1` was tested, and the EC50 [15] was 36 nM, the Emax [16] was 89% and the Ki [17] was 1.3 nM. For the same compound, the Ki [2] was 0.48 nM, the Ki (Mu-type opioid receptor [3]) was 0.47 nM and the Emax (Mu-type opioid receptor [18]) was 99%.
Work on `CN1CC[C@]23c4c5ccc(O)c4O[C@@]2(CO)C(=O)CC[C@@]3(O)[C@H]1C5` yielded an EC50 (Mu-type opioid receptor [5]) of 35 nM, an ED50 (Mus musculus [19]) of 4.3 mg/kg and a Ki [20] of 208 nM. For the same compound, the Ki (Mu-type opioid receptor [6]) was 3.2 nM.
Work on `CO[C@@]12CCC(=O)[C@]3(C)Oc4c(O)ccc5c4[C@@]31CCN(C)[C@@H]2C5` yielded a Ki [17] of 25.2 nM, a Ki [2] of 13.3 nM and a Ki (Mu-type opioid receptor [3]) of 0.01 nM.
`CCCC[C@@H]1NC(=O)[C@H](Cc2cccc3ccccc23)NC(=O)[C@@H](NC(=O)[C@@H](N)Cc2ccc(O)cc2)CSSC[C@H](C(N)=O)NC1=O` gave an Emax [13] of 100% and an Emax [14] of 100%.
Compound `Cc1cc(O)cc(C)c1C[C@H](N)C(=O)N1Cc2ccccc2C[C@H]1C(=O)NCC(=O)N1CCc2ccccc2C1` has an IC50 ([4]; cho) of 2.3 nM, an EC50 (Mu-type opioid receptor [5]; cho) of 22 nM and a Ki (Mu-type opioid receptor [6]; cho) of 3.3 nM. The Ki ([7]; cho) was 0.75 nM.
`O=C(/C=C/C(=O)Oc1ccc2c(c1)[C@@]13CCCC[C@H]1[C@@H](C2)N(CC1CCC1)CC3)Oc1ccc2c(c1)[C@@]13CCCC[C@H]1[C@@H](C2)N(CC1CCC1)CC3` gave an ED50 (Mus musculus [21]) of 0.27 nmol and an EC50 [22] of 4.3 nM.
`CCCC[C@@H]1NC(=O)[C@H](Cc2cccc3ccccc23)NC(=O)[C@H](NC(=O)[C@@H](N)Cc2ccc(O)cc2)CSSC[C@@H](C(=O)O)NC1=O` gave an EC50 [1] of 22 nM and an EC50 (Mu-type opioid receptor [23]) of 5.1 nM.
